For 4 molecules, ED50 results are on record in US4996211A, “Substituted dibenzocycloheptenimines” (Merck Sharp & Dohme Ltd., priority 1987, dated 1991).

The test has as its system tonic seizures induced by N-methyl-DL-aspartic acid (NMDLA). In words: Antagonism of NMDLA-induced tonic seizures in mice. Format: in vivo, mouse (male Swiss-Webster). The conditions noted are these: Mus musculus, iv; i.v. 15 min before s.c. NMDLA (500 mg/kg); groups of 8 mice, observed 30 min; probit analysis. How it is done: The compounds useful in this invention bind with a high affinity and in a reversible and saturable manner to membranes from rat brain cortex. In addition these compounds potently and selectively block responses to NMDA in a brain slice from rat cortex, and antagonise NMDA-induced seizures in the mouse.
Compounds of the invention were examined for their ability to antagonise tonic seizures induced by N-methyl-DL-aspartic acid (NMDLA). Groups of 8 male Swiss-Webster mice (25-30 g) were injected intravenously with the test compound at various doses, 15 min before s.c. administration of NMDLA (500 mg/kg). […] ED50 values for the antagonism of the NMDLA induced tonic seizures were determined using probit analysis.

Each structure is given as a SMILES string. Counter-ions that a name gives are not always drawn.

As to `CC12NC(Cc3ccc(-c4ccccc4)cc31)c1ccccc12` (stereo not shown) [Example 6, 5-Methyl-3-phenyl-10,11-dihydro-5H-dibenzo-[a,d]cyclohepten-5,10-imine hydrochloride], the ED50 is under 10 mg/kg.
With `Cc1ccc2c(c1)C1(C)NC2Cc2ccccc21` (stereo not shown) [Example 1, 5,7-Dimethyl-10.11-dihydro-5H-dibenzo[a,d]cyclohepten-5,10-imine], the ED50 was under 10 mg/kg.
Take `Cc1ccc2c(c1)C1(C)NC(C2)c2ccccc21` (stereo not shown) [Example 2, 3.5-Dimethyl-10,11-dihYdro-5H-dibenzo[a,d]cyclohepten-5,10-imine]: the ED50 was under 10 mg/kg.
`CC12NC(Cc3ccc(CO)cc31)c1ccccc12` (stereo not shown) [Example 12, 3-HYdroxymethyl-5-methyl-10,11-dihydro-5H-dibenzo-[a,d]cyclohepten-5,10-imine] registered a median effective dose (ED50) of under 10 mg/kg.
